# Test results as given in publication PMC10788917 (Journal of Medicinal Chemistry, 2023).
# Target: T1, HDAC8 (Homo sapiens, UniProt Q9BY41)
# T1 construct: one additional N-terminal residue 'H' (His) (N)
# T1 sequence (Q9BY41 1-377): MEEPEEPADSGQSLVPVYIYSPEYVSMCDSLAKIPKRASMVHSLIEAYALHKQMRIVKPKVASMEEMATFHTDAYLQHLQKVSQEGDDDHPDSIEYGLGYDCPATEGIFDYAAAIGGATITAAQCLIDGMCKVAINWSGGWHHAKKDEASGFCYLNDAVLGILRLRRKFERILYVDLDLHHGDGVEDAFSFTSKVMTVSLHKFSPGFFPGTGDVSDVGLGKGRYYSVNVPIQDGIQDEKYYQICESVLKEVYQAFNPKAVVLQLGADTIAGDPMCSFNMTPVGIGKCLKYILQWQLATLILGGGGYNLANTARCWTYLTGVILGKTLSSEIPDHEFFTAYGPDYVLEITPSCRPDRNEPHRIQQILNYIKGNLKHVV
# Assay: Covalent labeling, tryptic digestion and MS/MS
# Assay type: binding
# Conditions: not given
# Method: The covalent labeling procedure was conducted as described previously with slight modifications.[31] First, 25 μM HDAC8 was treated with 250 μM covalent probes for 1 h at 30 °C in the assay buffer described above. The protein was then precipitated by the addition of 10% TCA and then centrifuged at 18000g for 15 min. The supernatant was removed, and the dry pellet was diluted in buffer [50 mM NH4HCO3 (pH 7.8)]. After the fragment labeling was completed, 50 μL of the sample and 10 μL of a 0.2% (w/v) RapiGest SF (Waters, Milford, MA) solution buffered with 50 mM ammonium bicarbonate were mixed (pH 7.8), 3.3 μL of 45 mM DTT in 100 mM NH4HCO3 was added to reduce artificial oxidized cysteine residues, and the mixture was kept at 37.5 °C for 30 min. After the sample was cooled to room temperature, reduction was quenched, and nascent thiols were alkylated by adding 4.16 μL of 100 mM iodoacetamide in 100 mM NH4HCO3. Samples were placed in the dark at room temperature for 30 min. The reduced and alkylated protein was then digested with 10 μL (1 mg/mL) of trypsin (the enzyme:protein ratio was 1:10) (Sigma, St. Louis, MO). The sample was incubated at 37 °C overnight. To degrade the surfactant, 7 μL of a formic acid (500 mM) solution was added to the digested protein sample, a final concentration of 40 mM (pH ≈2) was obtained, and the mixture was further incubated at 37 °C for 45 min. For LC-MS analysis, the acid-treated sample was centrifuged for 5 min at 13 000 rpm and the supernatant was pipetted into a microvial.
# For procedure A, an AB Sciex 6500 QTRAP hybrid triple quadruple linear ion trap mass spectrometer, equipped with a Turbo V ion source in electrospray mode and an Agilent 1100 Binary Pump HPLC system (Agilent Technologies, Waldbronn, Germany) consisting of an autosampler, was used for LC-MS/MS analysis. Data acquisition and processing were performed using Analyst version 1.6.2 (AB Sciex Instruments). Chromatographic separation was achieved by using the Discovery BIO Wide Pore C-18-5 column (250 mm × 2.1 mm, 5 μm, 300 Å). The sample was eluted with a gradient of solvent A (0.1% formic acid in water) and solvent B (0.1% formic acid in ACN). The flow rate was set to 0.2 mL min^–1. The initial process for separation was as follows: 5% B for 7 min, followed by a linear gradient to 90% B by […], 90% B from 60 to 64 min, and from 64 to 65 min back to the initial condition with 5% eluent B retained for 10 min. The injection volume was 10 μL. An information-dependent acquisiton (IDA) LC-MS/MS experiment was used to identify the modified tryptic peptide fragments. An enhanced MS scan (EMS) was used as a survey scan, and an enhanced product ion scan (EPI) was the dependent scan. Precursor ion selection criteria: ions greater than m/z 400, which exceeds 106 counts, exclude former target ions for 30 s after two occurrence(s). The scan rates in both survey and dependent scans were 1000 Da/s. Nitrogen was used as the nebulizer gas (GS1), heater gas (GS2), and curtain gas with the optimum values set at 50, 40, and 40 (arbitrary units), respectively. The source temperature was 350 °C, and the ion spray voltage was set at 5000 V. The declustering potential value was set to 150 V. The collision energy in EPI experiments was set to rolling collision energy mode, where the actual value was set on the basis of the mass and charge state of the selected ion. GPMAW version 4.2 was used to analyze the large number of MS-MS spectra and identify the modified tryptically digested peptides.
# For procedure B, to obtain more precise information about the structure, samples were further analyzed by a Triple TOF 5600+ hybrid Quadrupole-TOF LC/MS/MS system (Sciex) equipped with a DuoSpray IonSource coupled with a Shimadzu Prominence LC20 UFLC system consisting of a quaternary pump, an autosampler, and a thermostated column compartment. Data were acquired and processed using Analyst TF version 1.7.1 (AB Sciex Instruments). […]
row,covalent labeling of HDAC8 cysteine by tryptic digestion and MS/MS,Structure (SMILES)
1,proved Cys153 covalent labeling,"C#Cc1c[n+](C)ccc1NC(=O)CC(=O)N1Cc2ccccc2C1.[I-] [compound 3, 3-Ethynyl-4-[3-(isoindolin-2-yl)-3-oxopropanamido]-1-methylpyridin-1-ium Iodide]"

# Same assay, conditions: 25 μM HDAC8, 250 μM probe, 1 h
MS/MS: modified HDAC8 peptide [1-34],MS/MS: modified HDAC8 peptide [148-165],MS/MS: modified HDAC8 peptide [241-250],MS/MS: modified HDAC8 peptide [260-287],MS/MS: modified HDAC8 peptide [327-357],MS/MS: modified HDAC8 peptide [33-83],Structure (SMILES)
modified,modified,–,modified,modified,–,C[n+]1cncc(I)c1 [F3+]
modified,modified,–,modified,–,–,C[n+]1cncc(Br)c1 [F2+]
modified,modified,–,modified,–,–,C#Cc1c[n+](C)ccn1 [G6+]

# Further lines, the molecule ahead of its results:
Structure (SMILES),MS/MS: modified HDAC8 peptide [1-34],MS/MS: modified HDAC8 peptide [148-165],MS/MS: modified HDAC8 peptide [241-250],MS/MS: modified HDAC8 peptide [260-287],MS/MS: modified HDAC8 peptide [327-357],MS/MS: modified HDAC8 peptide [33-83]
C[n+]1cccnc1I [D3+],modified,modified,modified,modified,–,–
C[n+]1ccccc1I [A3+],–,modified,modified,–,–,–
C#Cc1nccc[n+]1C [D6+],modified,–,–,–,–,–
C[n+]1ccc(I)cc1 [C3+],–,modified,modified,modified,–,modified
C[n+]1cccnc1Br [D2+],–,modified,modified,–,–,–
C#Cc1cc[n+](C)cc1 [C6+],modified,modified,modified,–,–,–
C[n+]1cccnc1Cl [D1+],modified,modified,modified,–,–,–
